In PubChem BioAssay (NCI):
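The compound was tested at five concentrations on cells cultured in 96-well plates, with a 48-hour exposure period. GI50 is the concentration that inhibits growth by half. The concentration for full growth arrest is given as TGI.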 Where a SMILES comes first, the peptide text is derived from it. The star is where a group is joined. Boc = CC(C)(C)OC(=O)*; OBn = c1ccc(CO*)cc1

Key:
Assay in all cases: growth of human tumour cells (NCI), 48 h
[1] = tested on: ACHN renal
[2] = tested on: EKVX NSCLC
[3] = tested on: HS 578T breast
[4] = tested on: MOLT-4 leukemia
[5] = tested on: SK-MEL-2 melanoma
[6] = tested on: SK-MEL-28 melanoma
[7] = tested on: SNB-19 CNS
[8] = tested on: SR leukemia
[9] = tested on: UACC-62 melanoma
[10] = tested on: SNB-75 CNS

SMILES	TGI [1] [µM]	TGI [2] [µM]	TGI [3] [µM]	TGI [4] [µM]	TGI [5] [µM]	TGI [6] [µM]	TGI [7] [µM]	TGI [8] [µM]	TGI [9] [µM]	TGI [10] [µM]	GI50 [1] [µM]	GI50 [2] [µM]	GI50 [3] [µM]	GI50 [4] [µM]	GI50 [5] [µM]	GI50 [6] [µM]	GI50 [7] [µM]	GI50 [10] [µM]	GI50 [8] [µM]	GI50 [9] [µM]
O=S(=O)(/N=C(\NO)Nc1ccc(Cl)cc1)C1CC=C(c2ccon2)S1 (stereo not given)	> 100	> 100	> 66.3	> 51.3	55.1	> 100	> 100	19.8	> 100	–	–	–	–	–	–	–	–	–	–	–
CC(=O)OC1[C@H](n2ccnc2)C[C@H]2[C@@H]3CC=C4CC(N5CCCC5)CC[C@]4(C)[C@H]3CC[C@]12C (stereo not given in full)	> 100	> 100	> 100	48.8	54.7	60.4	> 100	35.2	82.3	> 100	–	–	–	–	–	–	–	–	–	–
NC(=O)SCC(=O)Nc1ccc2ncccc2c1	> 100	> 100	> 100	–	> 100	> 100	> 100	> 100	> 100	–	–	–	–	–	–	–	–	–	–	–
Cc1ccc([N+](=O)[O-])cc1S(=O)(=O)Nc1ccc(C2=NN(S(=O)(=O)c3cc([N+](=O)[O-])ccc3C)C(c3ccco3)C2)cc1 (stereo not given)	> 100	94	> 100	> 100	> 100	> 100	> 100	> 100	> 100	> 100	–	–	–	–	–	–	–	–	–	–
Cc1nc2cccc([N+](=O)[O-])c2n1CCCN(C)C	> 100	> 100	> 100	–	> 100	> 100	> 100	> 100	> 100	> 100	–	–	–	–	–	–	–	–	–	–
Oc1ccccc1-c1nn2c(CCCCCCCCc3nnc4sc(-c5ccccc5O)nn34)nnc2s1	> 100	> 88.9	> 100	51.1	> 67.5	> 100	> 100	> 48.7	> 100	> 86.1	–	–	–	–	–	–	–	–	–	–
Cc1cc(C)c2c(=O)cc(-c3ccc4ccccc4c3)[nH]c2n1	> 100	> 100	> 100	12.9	> 100	> 100	> 100	18.6	> 100	> 90.7	–	–	–	–	–	–	–	–	–	–
COC(=O)C1=COc2c(n(C)c3ccccc23)-c2ccccc21	> 100	> 100	> 100	> 100	> 100	–	> 100	> 100	> 100	> 100	–	–	–	–	–	–	–	–	–	–
CC(C)CC(NC(=O)C(Cc1ccccc1)NC(=O)C(Cc1ccccc1)NC(=O)OC(C)(C)C)C(=O)OCc1ccccc1 (stereo not drawn) (Boc-Phe-Phe-Leu-OBn; configuration not given here)	–	> 100	> 100	> 100	> 100	> 100	> 100	> 100	> 100	> 100	–	–	–	–	–	–	–	–	–	–
O=C1CCCC2=C1CC1=C(CCCC1=O)N2c1cccc([N+](=O)[O-])c1	> 100	> 100	> 100	> 100	–	> 100	> 100	> 100	> 100	> 100	–	–	–	–	–	–	–	–	–	–
CCN(CC)CCNC(=O)c1nn(-c2ccc(Cl)cc2)c2c1CCc1cc(OC)ccc1-2	23.7	23.4	13.8	28.5	3.18	4.23	23.2	22	7.58	14.5	–	–	–	–	–	–	–	–	–	–
Cc1nnc([C@@]2(C)CC[C@H]3[C@@H](CCC4=CC(=O)CC[C@@]43C)[C@@H]2CC#N)o1	> 100	> 100	> 100	> 100	> 100	–	> 100	> 100	> 100	> 100	–	–	–	–	–	–	–	–	–	–
O=C(c1ccccc1)c1nn(-c2ccccc2)c2nc3nc(-c4ccccc4)cc(=O)n3nc12	> 100	58.2	> 100	49.3	65.6	> 100	> 100	40.4	89.2	> 100	37.1	22.2	44.6	21.8	23.8	37.8	42.7	36.1	17.6	29.4
COc1ccc(/C=C(/c2ccccc2)c2c(C)cc(C)c(/C(=C\c3ccc(OC)cc3)c3ccccc3)c2N=Nc2cc(C)cc(C)c2)cc1	> 100	> 100	> 100	> 100	21.8	> 100	> 100	> 100	> 100	34.2	–	–	–	–	–	–	–	–	–	–
CC(=O)C1=C(C)N(c2ccccc2)C2(O)C=CC(=O)C3=C(O)c4ccccc4C(=O)C312 (stereo not given)	31.2	49.1	> 100	> 100	39.2	52.2	38.6	> 100	34.1	> 100	–	–	–	–	–	–	–	–	–	–
C[N+](C)(C)C(C1=CCCC1=O)c1ccccc1 (stereo not given)	64.3	> 100	66.3	58.3	> 100	> 100	> 100	44.5	38.8	> 100	–	–	–	–	–	–	–	–	–	–
O=C(CCc1ccc(O)cc1)NCCCNC(=O)CCc1ccc(O)cc1	> 100	–	> 100	> 100	> 100	> 100	> 100	> 100	> 100	> 100	–	–	–	–	–	–	–	–	–	–
CC[C@H]1C=CCC[C@@]2(C[C@@H]3CC[C@@H]4[C@H](C(=O)OCCCCCCCCCCCCCCCC(=O)N(CCCNC(C)=O)C[C@H](CCNC(C)=O)OC(C)=O)[C@]5(CCC[C@@H](C)O5)NC(=[N+]34)N2)O1	1.37	1.89	1.72	1.66	0.338	2.52	2.22	0.416	0.246	–	–	–	–	–	–	–	–	–	–	–
C=CCN1C[C@@H](C)N([C@@H](c2ccc(C(=O)N(CC)CC)cc2)c2cccc(OC)c2)C[C@@H]1C	> 100	> 100	> 100	> 100	> 100	> 100	> 100	> 100	> 100	–	–	–	–	–	–	–	–	–	–	–
O=c1c2c3c(sc2nc2n1N=C(c1ccc([N+](=O)[O-])cc1)CS2)CCCC3	> 100	> 100	> 100	> 100	–	> 100	–	> 100	> 100	> 100	–	–	–	–	–	–	–	–	–	–
O=C1CCCC[C@H]1C(O)CC1CC(=O)N(c2ccccc2)C(=O)C1 (stereo not given in full)	> 100	–	> 100	> 100	–	> 100	> 100	> 100	> 100	> 100	–	–	–	–	–	–	–	–	–	–

SMILES	TGI [1] [µM]	TGI [2] [µM]	TGI [3] [µM]	TGI [4] [µM]	TGI [5] [µM]	TGI [6] [µM]	TGI [7] [µM]	TGI [8] [µM]	TGI [9] [µM]	TGI [10] [µM]	GI50 [1] [µM]	GI50 [2] [µM]	GI50 [3] [µM]	GI50 [4] [µM]	GI50 [5] [µM]	GI50 [6] [µM]	GI50 [7] [µM]	GI50 [10] [µM]	GI50 [8] [µM]	GI50 [9] [µM]
CN(C)/C=C/c1c2c(nc3ccccc13)C(=O)c1ccccc1C2=O	3.44	5.47	4.21	6.32	6.27	0.55	4.88	3.09	0.739	–	–	–	–	–	–	–	–	–	–	–
COc1cc(C(=O)OCCn2[nH]c(-c3ccc(Cl)cc3)nc2=S)cc(OC)c1OC	> 100	> 100	> 100	> 100	> 100	> 100	> 100	> 100	> 100	–	–	–	–	–	–	–	–	–	–	–
COc1cc2cc(C(=O)N3CC(CCl)c4c3cc(O)c3ccccc43)[nH]c2c(OC)c1OC (stereo not given)	–	0.597	< 0.005	0.153	< 0.005	–	1.12	> 50	0.291	< 0.005	–	–	–	–	–	–	–	–	–	–
CCOC(=O)N1N(c2ccccc2)C(=O)C1(c1ccccc1)c1ccccc1	> 100	> 100	> 100	> 100	70.5	> 100	> 100	> 100	> 100	–	–	–	–	–	–	–	–	–	–	–
CCCCN1C(=O)CS/C1=N/Nc1nc2c([nH]1)c(=O)n(C)c(=O)n2C	> 100	> 100	> 100	64.7	> 100	> 100	> 100	38.1	> 100	–	–	–	–	–	–	–	–	–	–	–
C/C(=C1\C(=O)C(c2ccccc2)N(c2ccccc2)C1=O)c1ccc(Cl)cc1 (stereo not given)	45	79.6	40.9	> 100	45.4	31.2	32.7	53.2	30.8	–	–	–	–	–	–	–	–	–	–	–
CCOC(=O)c1cn2c(ccc3sc4ccccc4c(=O)c32)n1	> 100	> 100	> 100	> 100	–	> 100	> 100	> 100	–	> 100	–	–	–	–	–	–	–	–	–	–
Nc1[nH]c(=S)c2c(N)n[nH]c2c1C(=O)Nc1ccc(Cl)cc1	–	> 100	> 100	> 100	> 100	> 100	> 100	> 100	> 100	> 100	–	–	–	–	–	–	–	–	–	–
COc1cccc(C=C2N=C(C)N(n3c(-c4ccccc4)nc4ccccc4c3=O)C2=O)c1	> 100	> 100	> 100	> 100	–	> 100	> 100	> 100	> 100	> 100	–	–	–	–	–	–	–	–	–	–
CCn1c(=O)c2c3cc(OC(C)=O)ccc3oc2c2ccc(OC(C)=O)cc21	85.9	70.3	> 100	> 100	–	> 100	> 100	> 100	> 100	45	–	–	–	–	–	–	–	–	–	–
CCOC(=O)C1=C(C)NC(C)=C(C(=O)OCC)C1c1ccc(C)cc1	> 100	> 100	> 100	74.6	98.4	> 100	> 100	–	> 100	> 100	–	–	–	–	–	–	–	–	–	–
O[C@H]1[C@H](O)[C@@H](Cn2nnc(-c3ccccc3)c2-c2ccccc2)OCO[C@@H]1Cn1nnc(-c2ccccc2)c1-c1ccccc1	13.6	30.1	33.2	> 30.4	9.41	> 67.1	55.4	–	11.7	28.9	–	–	–	–	–	–	–	–	–	–
O=C1C2CC=CCC2C(=O)N1n1c(Cc2ccccc2)n[nH]c1=O (stereo not given)	> 100	> 100	> 100	> 100	> 100	–	> 100	> 100	> 100	–	–	–	–	–	–	–	–	–	–	–
COc1ccc(-c2nc3cc(C(F)(F)F)ccc3n2CC2CCCN3CCCCC23)cc1 (stereo not given)	29	24.5	31.1	28.7	28.9	28.2	–	31.3	–	28.8	–	–	–	–	–	–	–	–	–	–
NC(=O)C1N=NSC1NC(=O)c1ccc([N+](=O)[O-])cc1 (stereo not given)	> 100	> 100	> 100	> 100	65	> 100	> 100	–	> 100	> 100	–	–	–	–	–	–	–	–	–	–
CC#CCCCC1(C)CCCNC1=S (stereo not given)	> 10	> 10	> 10	> 10	> 10	–	> 10	> 10	> 10	> 10	–	–	–	–	–	–	–	–	–	–
Nc1ccc(OCCCc2c(-c3ccccc3)nc(N)[nH]c2=O)cc1	> 100	> 100	> 100	> 100	–	> 100	> 100	> 100	43	> 100	–	–	–	–	–	–	–	–	–	–
Cc1cc(=O)c2ccccc2n1CCCCCCCCCCn1c(C)cc(=O)c2ccccc21	> 100	33.9	47.7	21.7	–	35.1	> 100	34	34.9	87	–	–	–	–	–	–	–	–	–	–
CN(C)Cc1cc(C(=O)/C=C/c2ccc(F)cc2)cc(CN(C)C)c1O	78.3	> 100	86.9	53.8	–	> 100	> 100	71.4	8.98	87.2	–	–	–	–	–	–	–	–	–	–
Cc1ccc(S(=O)(=O)N2CCCSCCN(S(=O)(=O)c3ccc(C)cc3)CCCSCC2)cc1	> 100	> 100	> 100	> 100	> 100	> 100	> 100	–	> 100	> 100	–	–	–	–	–	–	–	–	–	–
S=C(c1c[nH]c2ccccc12)N1CCCCC1	> 100	> 100	> 100	> 100	> 100	> 100	> 100	> 100	> 100	–	–	–	–	–	–	–	–	–	–	–
